The source of these data is patent publication US20020193424A1, “Human cancerous cell anti-proliferation and survival inhibition agent” (priority 2000, published 2002).

The test system of data set [1] is Human prostate carcinoma DU145 cells. Kind of data set: FBS-stimulated cell growth of DU145 cells (total cell number, Coulter Counter). The note with it: 10% FBS, 50, 100 and 200 micromolars, counted at 48 and 72 hours, compared with control and silymarin. It counts as cell-based. Here is the method: (§1) 1. Cells and Culture Conditions. Human prostate carcinoma DU145 cells were obtained from American Type Culture Collection (Bethesda, Md.), and cultured in RPMI 1640 containing 10% fetal bovine serum (FBS) and 1% penicillin-streptomycin under standard culture conditions. Alternatively, DU145 cells were cultured in 10% charcoal/dextran stripped FBS (cFBS) and 1% penicillin-streptomycin in the presence or absence of 1 nM DHT.
(§2) Silymarin and Silibinin derivatives were dissolved in ethanol for all the treatments. […] The dose and time of silibinin derivatives treatment are depicted in the associated drawings.
(§3) 2. Results. Referring to FIGS. 3 through 6, for the studies assessing the effect of silibinin derivatives on FBS-stimulated cell growth and cell death, DU145 cells were plated at 1×10^5 cells per 60 mm plate in RPMI 1640 containing 10% FBS and treated with either ethanol alone or varying concentrations of silymarin (“Si”) and silibinin derivatives (“D1” and “D2”) (50, 100 and 200 micromolars). Cells were counted at 48 and 72 hours after treatment with the subject compounds.
(§4) At the counting intervals, cells were trypsinized and collected in counting vials. Each plate was washed thoroughly with isotonic buffer containing 0.1% formalin and washings were collected in the original vials with trypsinized cells. Each vial was counted using Coulter Counter to determine the total cell number.

Data set [2] has the same test system. Briefly: Percent cell death of DU145 cells. The note with it: 10% FBS, 50, 100 and 200 micromolars, 48 and 72 hours, compared with control and silymarin. It counts as cell-based. Here is the method: as §1, §2, §3, §4
For data set [3] the following is noted: human, in vivo; cited from earlier work.

For the substance “2,3-Dihydro-3-[3,4-dimethoxyphenyl]-2-[hydroxymethyl]-5,7-dimethoxy-4-oxobenzopyran-2-yl]benzodioxin [Derivative #1]”, the “inhibition of cell growth” value in data set [1] is “remarkably improved inhibition of cell growth over the control and silymarin”. Also, the “percentage of cell death” value in data set [2] is on record as “likewise improved percentage of cell death”. For the substance Silymarin, the “tolerability / adverse effects” value in data set [3] is “well tolerated and largely free of adverse effects”.
